Results from patent US20060094698A1, “Self-administered contraceptive injection of oily solution” (priority 2002, published 2006).

Tests used:
[1] = Solubility / appearance of solutions determined visually; conditions: for solubility (visual) in all four tested solvents: desired concentration 50 mg/ml etonogestrel-undecanoate, 100 mg/ml MENT-undecanoate
Procedure: (§1) Using these solvents, the following solutions were prepared: • 100 mg/ml etonogestrel undecanoate in the different solvents • 50 mg/ml etonogestrel undecanoate in the different solvents • 200 mg/ml MENT undecanoate in the different solvents • 100 mg/ml MENT undecanoate in the different solvents • 50 mg/ml etonogestrel undecanoate+100 mg/ml MENT undecanoate in the different solvents
(§2) The solubility of the compounds in the solvents was determined visually. The viscosity was determined using a Brookfield model DV-III. The density of the solutions was determined using a Mettler Toledo DA-100M density meter.

[2] = Density, Mettler Toledo DA-100M density meter; type: physicochemical
Procedure: as §1, §2

[3] = Viscosity, Brookfield model DV-III; type: physicochemical
Procedure: as §1, §2

[4] = Pharmacokinetics of etonogestrel esters after one i.m. injection in the rabbit (plasma etonogestrel by LC-MSMS); type: in vivo; conditions: for peak levels of etonogestrel: one i.m. injection 20 mg/kg in arachis oil (40 mg/ml), rabbit plasma
Procedure: For the determination of the pharmacokinetic profile of the different etonogestrel-esters after parenteral application, i.m. application in the castrated rabbit model was chosen instead of s.c. Briefly, rabbits were injected once (day 1) with indicated etonogestrel-esters at 20 mg/kg in arachis oil (with a concentration of 40 mg/ml). At day 1, 2, 3, 4, 5, 6, 7, 8, 10, 12, 14, 21, 28, 35, 49, 63, 77, 92, 106, 120 and 133 blood was collected from the ear arteria, in EDTA-containing tubes. EDTA plasma was prepared (1500 g, 15 min) and stored at −20° C. With LC-MSMS, the amount of parent compound (etonogestrel) was determined in these samples. The lower limit of this new assay is 0.5 nmol/l, from 0-250 nmol/l a linear curve was obtained with a correlation coefficient of 0.9998.

[5] = Pharmacokinetics of androgen esters after one s.c. injection in the castrated rabbit (plasma MENT or testosterone by LC-MSMS); type: in vivo; conditions: one s.c. injection 20 mg/kg in arachis oil (100 mg/ml)
Procedure: For the determination of the pharmacokinetic profile of the different androgen-esters after s.c. application, the castrated rabbit model was selected as the model which is most similar to humans. Briefly, rabbits were injected once (day 1) with indicated androgen-esters at 20 mg/kg in arachis oil (with a concentration of 100 mg/ml). At day 2, 3, 4, 5, 8, 15, 22, 36, 44 and 58 blood was collected from the ear arteria, in EDTA-containing tubes. EDTA plasma was prepared (1500 g, 15 min) and stored at −20° C. With LC-MSMS, the amount of parent compound (testosterone or MENT) was determined in these samples. The lower limit of this new assay is 2 nmol/l, from 0-500 nmol/I a linear curve was obtained with a correlation coefficient of 0.9998.

[6] = one IM injection, hypogonadal men, FIG. 5 (Nieschlag and Behre 1997); cited from earlier work
[7] = one i.m. injection 20 mg/kg in arachis oil, rabbit
[8] = solvent arachis oil + 50% benzyl benzoate, etonogestrel undecanoate 50 mg/ml and/or MENT undecanoate 100 mg/ml
[9] = solvent arachis oil, etonogestrel undecanoate 50 mg/ml and/or MENT undecanoate 100 mg/ml
[10] = solvent ethyl undecanoate + 50% benzyl benzoate, etonogestrel undecanoate 50 mg/ml and/or MENT undecanoate 100 mg/ml
[11] = solvent ethyl undecanoate, etonogestrel undecanoate 50 mg/ml and/or MENT undecanoate 100 mg/ml

CCCCCCCCCCC(=O)OCC [Ethyl undecanoate]
Appearance ([1]; solvent alone): Clear colourless solution | Density ([2]; solvent alone): 0.861 | Viscosity ([3]; solvent alone): 2.6

C#C[C@]1(OC(=O)CCCCCC)CC[C@H]2[C@@H]3CCC4=CC(=O)CC[C@@H]4[C@H]3C(=C)C[C@@]21CC [Etonogestrel-heptanoate]
peak levels of etonogestrel [4]: 120 nmol/L

C#C[C@]1(OC(=O)CCCCCCCC)CC[C@H]2[C@@H]3CCC4=CC(=O)CC[C@@H]4[C@H]3C(=C)C[C@@]21CC [Etonogestrel-nonanoate]
peak levels of etonogestrel [4]: lower peak levels | duration of action (etonogestrel levels above 1 nmol/l) [4, 7]: extended duration

CCCCCCCCCCC(=O)O[C@H]1CC[C@H]2[C@H]3[C@H](CC[C@]12C)[C@H]1CCC(=O)C=C1C[C@H]3C [MENT-undecanoate]
heating temperature necessary to dissolve ([1]; 200 mg/ml in arachis oil): approximately 50 °C | solubility (visual) in all four tested solvents [1]: could be dissolved at two times the desired concentration | Appearance [1, 8]: Clear yellowish solution | Appearance [1, 9]: Clear yellowish solution | Appearance [1, 10]: Clear colourless solution | Appearance [1, 11]: Clear colourless solution | Density [2, 8]: 1.009 g/mL | Density [2, 9]: 0.924 g/mL | Density [2, 10]: 0.979 g/mL | Density [2, 11]: 0.879 g/mL | Viscosity [3, 8]: 35.0 cps | Viscosity [3, 9]: 97.2 cps | Viscosity [3, 10]: 6.1 cps | Viscosity [3, 11]: 4.0 cps

CCCCCCC(=O)O[C@H]1CC[C@H]2[C@@H]3CCC4=CC(=O)CC[C@]4(C)[C@H]3CC[C@]12C [Testosterone enanthate, testosterone enanthate]
pharmacokinetic profile of released MENT or testosterone [5]: high peak of testosterone

C#CC1(OC(=O)CCCCCCCCC)CCC2C3CCC4=CC(=O)CCC4C3C(=C)CC21CC (centres unmarked) [etonogestrel decanoate]
peak levels of etonogestrel [4]: 24 nmol/L | time of initial peak level of etonogestrel [4, 7]: 5 days

C#C[C@]1(OC(=O)CCCCCCCCCCC)CC[C@H]2[C@@H]3CCC4=CC(=O)CC[C@@H]4[C@H]3C(=C)C[C@@]21CC [etonogestrel dodecanoate]
peak levels of etonogestrel [4]: 9 nmol/L | time of initial peak level of etonogestrel [4, 7]: 8 days

C#C[C@]1(OC(=O)CCCCCCCCCCCC)CC[C@H]2[C@@H]3CCC4=CC(=O)CC[C@@H]4[C@H]3C(=C)C[C@@]21CC [etonogestrel tridecanoate]
peak levels of etonogestrel [4]: no initial levels of etonogestrel were observed

C#C[C@]1(OC(=O)CCCCCCCCCC)CC[C@H]2[C@@H]3CCC4=CC(=O)CC[C@@H]4[C@H]3C(=C)C[C@@]21CC [etonogestrel undecanoate]
peak levels of etonogestrel [4]: 13 nmol/L | duration of action (etonogestrel levels above 1 nmol/l) [4, 7]: more than 92 days | solubility (visual) in all four tested solvents [1]: could be dissolved at two times the desired concentration | Appearance [1, 8]: Clear yellowish solution | Appearance [1, 9]: Clear yellowish solution | Appearance [1, 10]: Clear colourless solution | Appearance [1, 11]: Clear colourless solution | Density [2, 8]: 1.006 g/mL | Density [2, 9]: 0.919 g/mL | Density [2, 10]: 0.978 g/mL | Density [2, 11]: 0.870 g/mL | Viscosity [3, 8]: 28.1 cps | Viscosity [3, 9]: 76.6 cps | Viscosity [3, 10]: 4.7 cps | Viscosity [3, 11]: 3.2 cps

C#C[C@]1(O)CC[C@H]2[C@@H]3CCC4=CC(=O)CC[C@@H]4[C@H]3C(=C)C[C@@]21CC [etonogestrel, (17α)-13-ethyl-17-hydroxy-11-methylene-18,19-dinorpregn-4-en-20-yn-3-one, reference compound]
peak levels of etonogestrel [4]: 200 nmol/L | time in which etonogestrel levels declined to below 1 nmol/l [4, 7]: 28 days

CCCCCCCCCCC(=O)O[C@H]1CC[C@H]2[C@@H]3CCC4=CC(=O)CC[C@]4(C)[C@H]3CC[C@]12C [testosterone undecanoate]
pharmacokinetics of serum testosterone in humans [6]: low initial release and steady-state levels of long duration
